The test system of the first test is HeLa. Briefly: Cytotoxicity against human HeLa cells assessed as reduction in cell viability after 48 hrs by WST-8 assay. The format is functional, cell-based.
Settings: not given
For orientation: Formazan colour is commonly taken as a measure of viable cells.
On to `O=C1OC[C@H](Cc2ccccc2)[C@H]1Cc1ccc(Cl)c(Cl)c1`, for which the EC50 (in general, the concentration needed to bring the measured effect to its halfway point) was 26 µM.
As for `COc1ccccc1C[C@H]1COC(=O)[C@@H]1Cc1ccc(Cl)c(Cl)c1`, the EC50 was 24 µM.
The same measure, in the same setting: under `O=C1OC[C@H](Cc2ccccc2)[C@H]1Cc1ccc(Cl)cc1Cl` stands 23 µM; under `CCOc1ccccc1C[C@H]1COC(=O)[C@@H]1Cc1ccc(Cl)c(Cl)c1`, 31 µM; under `COc1cc(C[C@H]2C(=O)OC[C@@H]2Cc2ccc(OC)c(OC)c2)ccc1O` [ARCTIGENIN], more than 100 µM.
Same read-out and setting: under `COc1cc(C[C@@H]2COC(=O)[C@H]2Cc2ccc(O)c(OC)c2)ccc1O` stands more than 100 µM.
The same measure, in the same setting: under `O=C1OC[C@H](Cc2ccc(F)cc2)[C@H]1Cc1ccc(Cl)c(Cl)c1` stands 19 µM.
As for `O=C1OC[C@H](Cc2ccccc2)[C@H]1Cc1ccc(C(F)(F)F)cc1`, the EC50 is 29 µM.
Same read-out and setting: under `COc1cc(C[C@H]2COC(=O)[C@@H]2Cc2ccc(O)c(OC)c2)ccc1O` [MATAIRESINOL] stands more than 100 µM; under `CCCCOc1ccccc1C[C@H]1COC(=O)[C@@H]1Cc1ccc(Cl)c(Cl)c1`, more than 100 µM.
On the same count and under the same terms, the value for `COc1cc(C[C@@H](C)[C@H](C)Cc2ccc(O)c(OC)c2)ccc1O` [(-)-DIHYDROGUAIARETICACID] was 22 µM; that for `CCCCc1ccc(C[C@H]2COC(=O)[C@@H]2Cc2ccc(Cl)c(Cl)c2)cc1` was 27 µM.

The test system of another test is HL-60. Briefly: Cytotoxicity against human HL60 cells assessed as reduction in cell viability after 48 hrs by WST-8 assay. It counts as functional, cell-based. Particulars: HL-60, 48 h.
In the case of `O=C1OC[C@H](Cc2ccccc2)[C@H]1Cc1ccc(Cl)c(Cl)c1`, the EC50 was 19 µM.
The same measure, in the same setting: the value for `Cc1ccc(C[C@H]2C(=O)OC[C@@H]2Cc2ccccc2)cc1` was 44 µM; that for `CCCCCCCOc1cccc(C[C@H]2C(=O)OC[C@@H]2Cc2ccccc2)c1` was 81 µM; that for `CCCCc1ccc(C[C@H]2COC[C@@H]2Cc2ccc(Cl)c(Cl)c2)cc1` was 23 µM.
The same measure, in the same setting: the value for `O=C1OC[C@H](Cc2ccccc2)[C@H]1Cc1ccc(OC(F)(F)F)cc1` was 27 µM.
Still for that read-out and setting: under `Cc1ccccc1C[C@H]1COC[C@@H]1Cc1ccc(Cl)c(Cl)c1` stands 21 µM; under `CCCCOc1ccc(C[C@H]2COC[C@@H]2Cc2ccccc2)cc1`, 11 µM.
Take `COc1ccc(C[C@H]2C(=O)OC[C@@H]2Cc2ccccc2)cc1`: the EC50 is 67 µM.
Take `Cc1ccc(C[C@H]2COC(=O)[C@@H]2Cc2ccc(Cl)c(Cl)c2)cc1`: the EC50 worked out at 19 µM.
On the same count and under the same terms, the value for `COc1ccc(C[C@H]2COC[C@@H]2Cc2ccc(Cl)c(Cl)c2)cc1OC` was 16 µM; that for `Oc1cccc(C[C@H]2COC[C@@H]2Cc2ccc(Cl)c(Cl)c2)c1` was 31 µM; that for `COc1ccccc1C[C@H]1COC(=O)[C@@H]1Cc1ccc(Cl)c(Cl)c1` was 14 µM.
Turning to `O=C1OC[C@H](Cc2ccccc2)[C@H]1Cc1ccc(Cl)cc1Cl`, the half-maximal effective concentration (EC50) was determined as 19 µM.
On the same count and under the same terms, under `COc1ccccc1C[C@H]1COC[C@@H]1Cc1ccc(Cl)c(Cl)c1` stands 55 µM.
The same measure, in the same setting: under `CCCCOc1ccccc1C[C@H]1COC[C@@H]1Cc1ccc(Cl)c(Cl)c1` stands 20 µM.
Same read-out and setting: under `CCOc1ccccc1C[C@H]1COC(=O)[C@@H]1Cc1ccc(Cl)c(Cl)c1` stands 15 µM; under `COc1cc(C[C@H]2C(=O)OC[C@@H]2Cc2ccccc2)ccc1O`, 93 µM.
Regarding `COc1ccc(C[C@H]2COC(=O)[C@@H]2Cc2ccc(Cl)c(Cl)c2)cc1`, the EC50 stood at 37 µM.
Still for that read-out and setting: the value for `COc1cc(C[C@H]2C(=O)OC[C@@H]2Cc2ccc(OC)c(OC)c2)ccc1O` [ARCTIGENIN] was 12 µM; that for `COCOc1cccc(C[C@H]2C(=O)OC[C@@H]2Cc2ccccc2)c1` was 80 µM; that for `O=C1OC[C@H](Cc2ccccc2)[C@H]1Cc1ccc(O)cc1` was 88 µM.
Same read-out and setting: the value for `COc1cc(C[C@@H]2COC(=O)[C@H]2Cc2ccc(O)c(OC)c2)ccc1O` was more than 100 µM; that for `Cc1ccccc1C[C@H]1C(=O)OC[C@@H]1Cc1ccccc1` was 57 µM.
Same read-out and setting: the value for `O=C1OC[C@H](Cc2ccccc2)[C@H]1Cc1ccc2c(c1)OCO2` was 57 µM; that for `Cc1ccc(C[C@H]2COC(=O)[C@@H]2Cc2ccc(Cl)c(Cl)c2)cc1C` was 16 µM; that for `COc1cccc(C[C@H]2COC[C@@H]2Cc2ccc(Cl)c(Cl)c2)c1` was 73 µM.
Consider `O=C1OC[C@H](Cc2ccc(F)c(F)c2)[C@H]1Cc1ccc(Cl)c(Cl)c1`, for which the EC50 turned out to be 25 µM.
Same read-out and setting: under `Fc1ccc(C[C@H]2COC[C@@H]2Cc2ccc(Cl)c(Cl)c2)cc1F` stands 18 µM; under `CCCCCCCOc1ccccc1C[C@H]1C(=O)OC[C@@H]1Cc1ccccc1`, 75 µM; under `O=C1OC[C@H](Cc2ccccc2F)[C@H]1Cc1ccc(Cl)c(Cl)c1`, 28 µM.
On the same count and under the same terms, under `O=C1OC[C@H](Cc2ccc(F)cc2)[C@H]1Cc1ccc(Cl)c(Cl)c1` stands 14 µM; under `COc1cc(C[C@H]2COC[C@@H]2Cc2ccc(Cl)c(Cl)c2)ccc1O`, 21 µM.
On the same count and under the same terms, under `O=C1OC[C@H](Cc2ccccc2)[C@H]1Cc1ccc(F)cc1` stands 57 µM; under `O=C1OC[C@H](Cc2ccccc2)[C@H]1Cc1cccc(Cl)c1`, 36 µM.
Take `O=C1OC[C@H](Cc2ccc(Cl)c(Cl)c2)[C@H]1Cc1ccc(Cl)c(Cl)c1`: the EC50 stood at 20 µM.
On the same count and under the same terms, the value for `O=C1OC[C@H](Cc2ccccc2)[C@H]1Cc1ccc(F)c(F)c1` was 50 µM; that for `COc1ccc(C[C@H]2COC(=O)[C@@H]2Cc2ccc(Cl)c(Cl)c2)cc1OC` was 24 µM; that for `Clc1ccc(C[C@H]2COC[C@@H]2Cc2ccc(Cl)c(Cl)c2)cc1Cl` was 16 µM.
The same measure, in the same setting: the value for `Fc1ccccc1C[C@H]1COC[C@@H]1Cc1ccc(Cl)c(Cl)c1` was 51 µM; that for `Cc1ccccc1C[C@H]1COC(=O)[C@@H]1Cc1ccc(Cl)c(Cl)c1` was 22 µM; that for `Cc1ccc(C[C@H]2C(=O)OC[C@@H]2Cc2ccccc2)cc1C` was 35 µM.
As to `Cc1cccc(C[C@H]2COC(=O)[C@@H]2Cc2ccc(Cl)c(Cl)c2)c1`, the EC50 came out at 22 µM.
As to `COc1ccc(C[C@H]2COC[C@@H]2Cc2ccc(Cl)c(Cl)c2)cc1O`, the EC50 was found to be 33 µM.
Same read-out and setting: under `O=C1OC[C@H](Cc2ccccc2)[C@H]1Cc1cccc(C(F)(F)F)c1` stands 34 µM.
Turning to `Clc1ccc(C[C@H]2COC[C@@H]2Cc2ccc3c(c2)OCCO3)cc1Cl`, the 50% effective concentration (EC50) is 38 µM.
Same read-out and setting: under `O=C1OC[C@H](Cc2ccccc2)[C@H]1Cc1ccc(C(F)(F)F)cc1` stands 22 µM; under `Oc1ccc(C[C@H]2COC[C@@H]2Cc2ccc(Cl)c(Cl)c2)cc1`, 31 µM; under `O=C1OC[C@H](Cc2ccccc2)[C@H]1Cc1ccccc1`, 77 µM.
Still for that read-out and setting: the value for `O=C1OC[C@H](Cc2ccccc2)[C@H]1Cc1ccccc1OC(F)(F)F` was 39 µM.
The same measure, in the same setting: the value for `O=C1OC[C@H](Cc2ccccc2O)[C@H]1Cc1ccc(Cl)c(Cl)c1` was 33 µM; that for `O=C1OC[C@H](Cc2ccc(O)cc2)[C@H]1Cc1ccc(Cl)c(Cl)c1` was 37 µM; that for `COCOc1ccccc1C[C@H]1C(=O)OC[C@@H]1Cc1ccccc1` was 76 µM.
With `O=C1OC[C@H](Cc2ccccc2)[C@H]1Cc1ccccc1O`, the EC50 stood at 83 µM.
Same read-out and setting: the value for `Cc1cccc(C[C@H]2COC[C@@H]2Cc2ccc(Cl)c(Cl)c2)c1` was 28 µM; that for `COc1ccccc1C[C@H]1C(=O)OC[C@@H]1Cc1ccccc1` was 79 µM; that for `O=C1OC[C@H](Cc2cccc(O)c2)[C@H]1Cc1ccc(Cl)c(Cl)c1` was 48 µM.
Same read-out and setting: under `CCCCOc1ccccc1C[C@H]1C(=O)OC[C@@H]1Cc1ccccc1` stands 20 µM; under `COc1cc(C[C@H]2COC(=O)[C@@H]2Cc2ccc(O)c(OC)c2)ccc1O` [MATAIRESINOL], 74 µM.
Same read-out and setting: under `Fc1cccc(C[C@H]2COC[C@@H]2Cc2ccc(Cl)c(Cl)c2)c1` stands 20 µM; under `O=C1OC[C@H](Cc2ccccc2)[C@H]1Cc1ccc(Cl)cc1`, 36 µM; under `Cc1ccc(C[C@H]2COC[C@@H]2Cc2ccc(Cl)c(Cl)c2)cc1C`, 36 µM.
As for `O=C1OC[C@H](Cc2ccccc2)[C@H]1Cc1ccccc1C(F)(F)F`, the EC50 turned out to be 37 µM.
Still for that read-out and setting: under `O=C1OC[C@H](Cc2ccccc2)[C@H]1Cc1ccccc1Cl` stands 37 µM; under `CCCCOc1ccc(/C=C2\C(=O)OC[C@@H]2Cc2ccccc2)cc1`, 58 µM.
On the same count and under the same terms, the value for `O=C1OC[C@H](Cc2ccccc2)[C@H]1Cc1ccccc1F` was 72 µM.
The same measure, in the same setting: under `CCCCOc1ccccc1C[C@H]1COC(=O)[C@@H]1Cc1ccc(Cl)c(Cl)c1` stands 10 µM; under `Cc1ccc(C[C@H]2COC[C@@H]2Cc2ccc(Cl)c(Cl)c2)cc1`, 21 µM; under `COc1cccc(C[C@H]2C(=O)OC[C@@H]2Cc2ccccc2)c1`, 66 µM.
With `CCc1ccc(C[C@H]2COC(=O)[C@@H]2Cc2ccc(Cl)c(Cl)c2)cc1`, the EC50 stood at 16 µM.
The same measure, in the same setting: the value for `O=C1OC[C@H](Cc2ccccc2)[C@H]1Cc1cccc(F)c1` was 75 µM; that for `COc1ccc(C[C@H]2COC[C@@H]2Cc2ccc(Cl)c(Cl)c2)cc1` was 39 µM; that for `COc1cc(C[C@@H](C)[C@H](C)Cc2ccc(O)c(OC)c2)ccc1O` [(-)-DIHYDROGUAIARETICACID] was 26 µM.
The same measure, in the same setting: under `O=C1OC[C@H](Cc2ccc3c(c2)OCO3)[C@H]1Cc1ccc(Cl)c(Cl)c1` stands 51 µM; under `CCCCOc1cccc(C[C@H]2C(=O)OC[C@@H]2Cc2ccccc2)c1`, 26 µM; under `CCCCc1ccc(C[C@H]2COC(=O)[C@@H]2Cc2ccc(Cl)c(Cl)c2)cc1`, 9.4 µM.
Same read-out and setting: the value for `Oc1ccccc1C[C@H]1COC[C@@H]1Cc1ccc(Cl)c(Cl)c1` was 34 µM; that for `C[C@H](Cc1ccccc1)[C@H](C)Cc1ccc(Cl)c(Cl)c1` was 19 µM.
On to `Cc1cccc(C[C@H]2C(=O)OC[C@@H]2Cc2ccccc2)c1`, for which the EC50 turned out to be 53 µM.
Still for that read-out and setting: the value for `COCOc1ccc(C[C@H]2C(=O)OC[C@@H]2Cc2ccccc2)cc1` was 71 µM; that for `Fc1ccc(C[C@H]2COC[C@@H]2Cc2ccc(Cl)c(Cl)c2)cc1` was 43 µM; that for `Clc1ccc(C[C@H]2COC[C@@H]2Cc2ccc3c(c2)OCO3)cc1Cl` was 22 µM.
The same measure, in the same setting: under `COc1ccc(C[C@H]2COC(=O)[C@@H]2Cc2ccc(Cl)c(Cl)c2)cc1O` stands 32 µM.
Same read-out and setting: the value for `O=C1OC[C@H](Cc2ccccc2)[C@H]1Cc1cccc(OC(F)(F)F)c1` was 34 µM; that for `COc1cc(C[C@H]2COC(=O)[C@@H]2Cc2ccc(Cl)c(Cl)c2)ccc1O` was 36 µM; that for `CCOc1ccccc1C[C@H]1COC[C@@H]1Cc1ccc(Cl)c(Cl)c1` was 29 µM.
In the case of `O=C1OC[C@H](Cc2ccc3c(c2)OCCO3)[C@H]1Cc1ccc(Cl)c(Cl)c1`, the EC50 was determined as 28 µM.
On the same count and under the same terms, under `Clc1ccc(C[C@H]2COC[C@@H]2Cc2ccccc2)cc1Cl` stands 19 µM; under `CCCCOc1cc(C[C@H]2C(=O)OC[C@@H]2Cc2ccccc2)ccc1O`, 35 µM.
Still for that read-out and setting: under `CCc1ccc(C[C@H]2COC[C@@H]2Cc2ccc(Cl)c(Cl)c2)cc1` stands 26 µM.
On the same count and under the same terms, the value for `COc1cccc(C[C@H]2COC(=O)[C@@H]2Cc2ccc(Cl)c(Cl)c2)c1` was 34 µM.

For the origin of these results see ChEMBL document CHEMBL4052800, “Syntheses of cytotoxic novel arctigenin derivatives bearing halogen and alkyl groups on aromatic rings” (Bioorg Med Chem Lett, 2017).
